Data as given in the supplement of paper PMC10627819.

Assays:
S. aureus DSM 20231 [1] = assay: fitness (endpoint OD595 vs no drug) (fraction); higher = more growth
Outline: (§1)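 Cultures at OD595 0.01 were dispensed into 384-well plates in TSB, LB Lennox or CY and incubated at 37 °C. Every 30 min for 14 h, OD595 was read and corrected by the first reading. Fitness is the optical density at entry into stationary phase relative to the robust mean of no-drug control wells, capped at 1.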

S. aureus Newman [2] = assay: as above
Outline: as §1

S. pneumoniae D39V [3] = assay: as above
Outline: as §1

B. subtilis 168 = assay: Bliss interaction score (quartile over a dose matrix) (fitness difference); higher = more antagonism (negative = synergy)
Outline: (§2)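 Quartiles of the Bliss score were taken over technical, biological and donor/recipient replicates. That score is observed fitness minus the product of the single-drug fitness values, which were inferred from combination data. Fitness itself is OD595 at entry into stationary phase divided by the plate's robust no-drug mean, with a cap at 1.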

S. aureus DSM 20231 [4] = assay: as above
Outline: as §2

S. aureus Newman [5] = assay: as above
Outline: as §2

S. pneumoniae D39V [6] = assay: as above
Outline: as §2
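Wherever Bliss interaction score (quartile over a dose matrix) is given: first quartile when negative (synergy) and third quartile when positive (antagonism).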

CC1(C)S[C@@H]2[C@H](NC(=O)[C@H](N)c3ccc(O)cc3)C(=O)N2[C@H]1C(=O)O [Amoxicillin] + O=C(O[C@@H]1Cc2c(O)cc(O)cc2O[C@@H]1c1cc(O)c(O)c(O)c1)c1cc(O)c(O)c(O)c1 [EGCG]
fitness
Details | partner 12.5 µg/mL | partner 25 µg/mL | partner 50 µg/mL
S. aureus DSM 20231 [1], first compound 0.0625 µg/mL | 0.528 | 0.516 | 0.513
S. aureus DSM 20231 [1], first compound 0.125 µg/mL | 0.363 | 0.411 | 0.376
S. aureus DSM 20231 [1], first compound 0.25 µg/mL | 0.171 | 0.0387 | 0.108
S. aureus DSM 20231 [1], first compound 0.5 µg/mL | 0.0001 | 0.0081 | 0
S. aureus Newman [2], first compound 0.0625 µg/mL | 0.751 | 0.714 | 0.638
S. aureus Newman [2], first compound 0.125 µg/mL | 0.757 | 0.741 | 0.681
S. aureus Newman [2], first compound 0.25 µg/mL | 0.729 | 0.751 | –
S. pneumoniae D39V [3], first compound 0.0008 µg/mL | 0.969 | 0.911 | 0.984
S. pneumoniae D39V [3], first compound 0.0015 µg/mL | 0.92 | 0.922 | –
S. pneumoniae D39V [3], first compound 0.003 µg/mL | 0.851 | 0.912 | 0.894

S. pneumoniae D39V [3], first compound 0.006 µg/mL, one replicate
Details | fitness
partner 12.5 µg/mL | 0.412
partner 25 µg/mL | 0.545
partner 50 µg/mL | 0.601

Details | Bliss interaction score
B. subtilis 168 | 0.0413
S. aureus DSM 20231 [4] | 0.0606
S. aureus Newman [5] | 0.0679
S. pneumoniae D39V [6] | -0.0544

CO/N=C(\C(=O)N[C@@H]1C(=O)N2C(C(=O)[O-])=C(C[N+]3(C)CCCC3)CS[C@H]12)c1csc(N)n1 [Cefepime] + CC1=C\[C@@H](O)CC(=O)Cc2nc(co2)C(=O)N2CCC=C2C(=O)O[C@H](C(C)C)[C@H](C)/C=C/C(=O)NC\C=C\1 [Virginiamycin M1]
Details | fitness
S. aureus DSM 20231 [1], first compound 0.125 µg/mL, partner 0.0625 µg/mL | 0.97
S. aureus DSM 20231 [1], first compound 0.125 µg/mL, partner 0.125 µg/mL | 0.932
S. aureus DSM 20231 [1], first compound 0.125 µg/mL, partner 0.25 µg/mL | 0.895
S. aureus DSM 20231 [1], first compound 0.25 µg/mL, partner 0.0625 µg/mL | 0.78
S. aureus DSM 20231 [1], first compound 0.25 µg/mL, partner 0.125 µg/mL | 0.902
S. aureus DSM 20231 [1], first compound 0.25 µg/mL, partner 0.25 µg/mL | 0.862
S. aureus DSM 20231 [1], first compound 0.5 µg/mL, partner 0.0625 µg/mL | 0.832
S. aureus DSM 20231 [1], first compound 0.5 µg/mL, partner 0.125 µg/mL | 0.969
S. aureus DSM 20231 [1], first compound 0.5 µg/mL, partner 0.25 µg/mL | 0.904
S. aureus Newman [2], first compound 0.125 µg/mL, partner 0.0625 µg/mL | 0.936
S. aureus Newman [2], first compound 0.125 µg/mL, partner 0.125 µg/mL | 0.932
S. aureus Newman [2], first compound 0.125 µg/mL, partner 0.25 µg/mL | 0.943
S. aureus Newman [2], first compound 0.25 µg/mL, partner 0.0625 µg/mL | 0.869
S. aureus Newman [2], first compound 0.25 µg/mL, partner 0.125 µg/mL | 0.848
S. aureus Newman [2], first compound 0.25 µg/mL, partner 0.25 µg/mL | 0.863
S. aureus Newman [2], first compound 0.5 µg/mL, partner 0.0625 µg/mL | 0.768
S. aureus Newman [2], first compound 0.5 µg/mL, partner 0.125 µg/mL | 0.792
S. aureus Newman [2], first compound 0.5 µg/mL, partner 0.25 µg/mL | 0.775
S. pneumoniae D39V [3], first compound 0.007 µg/mL, partner 0.5 µg/mL | ≥ 1
S. pneumoniae D39V [3], first compound 0.007 µg/mL, partner 1 µg/mL | ≥ 1
S. pneumoniae D39V [3], first compound 0.007 µg/mL, partner 2 µg/mL | 0.992
S. pneumoniae D39V [3], first compound 0.0078 µg/mL, partner 2 µg/mL | 0.958
S. pneumoniae D39V [3], first compound 0.014 µg/mL, partner 0.5 µg/mL | ≥ 1
S. pneumoniae D39V [3], first compound 0.014 µg/mL, partner 1 µg/mL | ≥ 1
S. pneumoniae D39V [3], first compound 0.014 µg/mL, partner 2 µg/mL | ≥ 1
S. pneumoniae D39V [3], first compound 0.0155 µg/mL, partner 2 µg/mL | 0.946
S. pneumoniae D39V [3], first compound 0.028 µg/mL, partner 0.5 µg/mL | 0.979
S. pneumoniae D39V [3], first compound 0.028 µg/mL, partner 1 µg/mL | 0.956
S. pneumoniae D39V [3], first compound 0.028 µg/mL, partner 2 µg/mL | 0.969
S. pneumoniae D39V [3], first compound 0.031 µg/mL, partner 2 µg/mL | 0.851

fitness, one replicate
Details | first compound 0.0078 µg/mL | first compound 0.0155 µg/mL | first compound 0.031 µg/mL | first compound 0.125 µg/mL | first compound 0.25 µg/mL | first compound 0.5 µg/mL
S. aureus DSM 20231 [1], partner 0.5 µg/mL | – | – | – | 0.887 | 0.892 | 0.866
S. aureus DSM 20231 [1], partner 1 µg/mL | – | – | – | 0.86 | 0.878 | 0.948
S. aureus Newman [2], partner 0.5 µg/mL | – | – | – | 0.865 | 0.819 | 0.732
S. aureus Newman [2], partner 1 µg/mL | – | – | – | 0.873 | 0.916 | 0.768
S. aureus Newman [2], partner 2 µg/mL | – | – | – | 0.888 | 0.798 | 0.706
S. pneumoniae D39V [3], partner 0.15 µg/mL | ≥ 1 | ≥ 1 | ≥ 1 | – | – | –
S. pneumoniae D39V [3], partner 0.3 µg/mL | ≥ 1 | ≥ 1 | 0.963 | – | – | –
S. pneumoniae D39V [3], partner 0.5 µg/mL | ≥ 1 | 0.948 | 0.782 | – | – | –
S. pneumoniae D39V [3], partner 1 µg/mL | 0.958 | 0.962 | 0.686 | – | – | –

Details | Bliss interaction score
B. subtilis 168 | 0.062
S. aureus DSM 20231 [4] | 0.0738
S. aureus Newman [5] | -0.0566
S. pneumoniae D39V [6] | 0.0257
